# Laboratory results reported in patent US12655116B2, “Substituted isophthalic acid diamides” (Bayer Aktiengesellschaft, priority 2020, dated 2026).
# How the values were obtained:
# ECHCG [1] = test: Post-emergence herbicidal action against ECHCG; assay type: in vivo, Echinochloa crus-galli
# Method in brief: (§1)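 Herbicidal effect was scored visually in percent after about 3 weeks in the greenhouse. Plants had been raised in sandy loam and treated post-emergence at the one-leaf stage with formulated compound at 600 to 800 l/ha water plus 0.2% wetting agent.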
# SETVI [2] = test: Pre-emergence herbicidal action against SETVI; assay type: in vivo, Setaria viridis
# Method in brief: (§2)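 Herbicidal effect was assessed 3 weeks after treatment by visual comparison with untreated controls, 100% denoting dead plants. Aqueous WP or EC preparations had been applied at 600 to 800 l/ha with 0.2% wetting agent to the soil covering freshly sown seeds.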
# ECHCG [3] = test: Pre-emergence herbicidal action against ECHCG; assay type: in vivo, Echinochloa crus-galli
# Method in brief: as §2
# POLCO [4] = test: Pre-emergence herbicidal action against POLCO; assay type: in vivo, Polygonum convolvulus
# Method in brief: as §2
# AVEFA = test: Pre-emergence herbicidal action against AVEFA; assay type: in vivo, Avena fatua; conditions: 80 g/ha, pre-emergence
# Method in brief: as §2
# ABUTH [5] = test: Pre-emergence herbicidal action against ABUTH; assay type: in vivo, Abutilon theophrasti; conditions: for Pre-emergence action against ABUTH (herbicidal activity): 80 g/ha, scored visually after 3 weeks vs untreated controls (100% = plants have died, 0% = like control plants)
# Method in brief: as §2
# ALOMY = test: Pre-emergence herbicidal action against ALOMY; assay type: in vivo, Alopecurus myosuroides; conditions: 80 g/ha, pre-emergence, scored visually after 3 weeks vs untreated controls (100% = plants have died, 0% = like control plants)
# Method in brief: as §2
# POLCO [6] = test: Post-emergence herbicidal action against POLCO; assay type: in vivo, Polygonum convolvulus; conditions: dosage 20 g/ha
# Experimental: Seeds of monocotyledonous and dicotyledonous weed and crop plants are laid out in sandy loam soil in wood-fiber pots, covered with soil and cultivated in a greenhouse under good growth conditions. 2 to 3 weeks after sowing, the test plants are treated at the one-leaf stage. The compounds of the invention, formulated in the form of wettable powders (WP) or as emulsion concentrates (EC), are then sprayed onto the green parts of the plants in the form of an aqueous suspension or emulsion at a water application rate equivalent to 600 to 800 l/ha, with addition of 0.2% wetting agent. After the test plants have been left to stand in the greenhouse under optimal growth conditions for about 3 weeks, the action of the preparations is assessed visually in comparison to untreated controls (herbicidal action in percent (%): 100% activity=the plants have died, 0% activity=like control plants). […] The tables below illustrate, in an illustrative manner, the post-emergence herbicidal action of the compounds of the invention, the herbicidal activity being stated in percent.
# MATIN [7] = test: Pre-emergence herbicidal action against MATIN; assay type: in vivo, Matricaria inodora
# Method in brief: as §2
# DIGSA [8] = test: Pre-emergence herbicidal action against DIGSA; assay type: in vivo, Digitaria sanguinalis
# Method in brief: as §2
# SETVI [9] = test: Post-emergence herbicidal action against SETVI; assay type: in vivo, Setaria viridis
# Method in brief: as §1
# PHBPU [10] = test: Post-emergence herbicidal action against PHBPU; assay type: in vivo, Pharbitis purpurea; conditions: dosage 20 g/ha
# Method in brief: as §1
# PHBPU [11] = test: Pre-emergence herbicidal action against PHBPU; assay type: in vivo, Pharbitis purpurea; conditions: dosage 80 g/ha
# Method in brief: as §2
# AMARE [12] = test: Pre-emergence herbicidal action against AMARE; assay type: in vivo, Amaranthus retroflexus
# Method in brief: as §2
# ABUTH [13] = test: Post-emergence herbicidal action against ABUTH; assay type: in vivo, Abutilon theophrasti; conditions: visual assessment about 3 weeks after treatment vs untreated controls
# Method in brief: as §1
# VIOTR [14] = test: Pre-emergence herbicidal action against VIOTR; assay type: in vivo, Viola tricolor
# Method in brief: as §2
# VERPE [15] = test: Pre-emergence herbicidal action against VERPE; assay type: in vivo, Veronica persica; conditions: dosage 80 g/ha
# Method in brief: as §2
# VERPE [16] = test: Post-emergence herbicidal action against VERPE; assay type: in vivo, Veronica persica; conditions: 20 g/ha
# Method in brief: as §1
# MATIN [17] = test: Post-emergence herbicidal action against MATIN; assay type: in vivo, Matricaria inodora
# Method in brief: as §1
# DIGSA [18] = test: Post-emergence herbicidal action against DIGSA; assay type: in vivo, Digitaria sanguinalis
# Method in brief: as §1
# AMARE [19] = test: Post-emergence herbicidal action against AMARE; assay type: in vivo, Amaranthus retroflexus; conditions: 20 g/ha, visual assessment about 3 weeks after treatment, 100% = plants have died, 0% = like control plants
# Method in brief: as §1
# VIOTR [20] = test: Post-emergence herbicidal action against VIOTR; assay type: in vivo, Viola tricolor
# Method in brief: as §1
# [21] = 20 g/ha, scored visually after 3 weeks vs untreated controls, 100% = plants have died, 0% = like control plants
# [22] = 80 g/ha, scored visually after 3 weeks vs untreated controls (100% = plants have died, 0% = like control plants)
SMILES,Post-emergence action against ECHCG in % (ECHCG [1]; dosage 5 g/ha),Post-emergence action against ECHCG in % (ECHCG [1]; dosage 20 g/ha),Pre-emergence action against SETVI in % (SETVI [2]; dosage 80 g/ha),Pre-emergence action against ECHCG in % (ECHCG [3]; 80 g/ha),Pre-emergence action against ABUTH (herbicidal activity) (ABUTH [5]),Post-emergence action against POLCO in % (POLCO [6]),Pre-emergence action against MATIN in % (MATIN [7]; dosage 20 g/ha),Pre-emergence action against MATIN in % (MATIN [7]; dosage 80 g/ha),Pre-emergence action against DIGSA in % (DIGSA [8]; dosage 20 g/ha),Pre-emergence action against DIGSA in % (DIGSA [8]; dosage 80 g/ha),Post-emergence action against SETVI in % (SETVI [9]; dosage 20 g/ha),Post-emergence action against PHBPU in % (PHBPU [10]),Pre-emergence action against PHBPU in % (PHBPU [11]),Pre-emergence action against AMARE in % (AMARE [12]; [21]),Pre-emergence action against AMARE in % (AMARE [12]; [22]),Post-emergence action against ABUTH in % (ABUTH [13]; dosage 5 g/ha),Post-emergence action against ABUTH in % (ABUTH [13]; dosage 20 g/ha),Pre-emergence action against VIOTR in % (VIOTR [14]; dosage 20 g/ha),Pre-emergence action against VIOTR in % (VIOTR [14]; dosage 80 g/ha),further results
CCn1nnnc1NC(=O)c1ccc(C(F)(F)F)c(C(=O)NCC(F)F)c1C [Example 2-30],80%,80%,100%,100%,100%,80%,100%,100%,100%,100%,80%,90%,80%,100%,100%,80%,80%,100%,100%,Pre-emergence action against SETVI in % (SETVI [2]; dosage 20 g/ha): 100%; Pre-emergence action against POLCO in % (POLCO [4]; dosage 20 g/ha): 80%; Pre-emergence action against POLCO in % (POLCO [4]; dosage 80 g/ha): 80%; Pre-emergence action against AVEFA in % (AVEFA): 100%; Pre-emergence action against ALOMY (herbicidal activity) (ALOMY): 100%
CCNC(=O)c1c(C(F)F)ccc(C(=O)Nc2nnnn2CC)c1C1CC1 [Example 2-305],90%,90%,80%,100%,100%,100%,100%,100%,100%,100%,90%,90%,90%,100%,100%,80%,90%,90%,100%,"Pre-emergence action against VERPE in % (VERPE [15]): 100%; Pre-emergence action against ECHCG in % (ECHCG [3]; 20 g/ha): 80%; Post-emergence action against VERPE in % (VERPE [16]): 90%; Pre-emergence action against ABUTH (herbicidal activity in percent) (ABUTH [5]; dosage 20 g/ha, scored visually after 3 weeks vs untreated controls, 100% = plants have died, 0% = like control plants): 100%; Post-emergence action against SETVI in % (SETVI [9]; dosage 5 g/ha): 90%; Post-emergence action against MATIN in % (MATIN [17]; dosage 5 g/ha): 80%; Post-emergence action against MATIN in % (MATIN [17]; dosage 20 g/ha): 90%; Post-emergence action against DIGSA in % (DIGSA [18]; 5 g/ha): 80%; Post-emergence action against DIGSA (DIGSA [18]; 20 g/ha): 90%; Post-emergence action at 20 g/ha against AMARE in % (AMARE [19]): 100%; Post-emergence action against VIOTR in % (VIOTR [20]; 5 g/ha): 80%; Post-emergence action against VIOTR in % (VIOTR [20]; 20 g/ha): 90%"
